# Data reported in ChEMBL document CHEMBL5154916, “Multiparameter Optimization of Naphthyridine Derivatives as Selective α5-GABAA Receptor Negative Allosteric Modulators” (J Med Chem, 2022).
# Columns and labels:
# [1] = […] in po dosed Wistar rat assessed as convulsive activity by assessing NOAEL by electroconvulsive test; assay type: organism-based; conditions: in vivo
# Cytochrome P450 2B6 = biological target: T1, Cytochrome P450 2B6 (Homo sapiens, UniProt P20813); assay: Inhibition of CYP2B6 (unknown origin); assay type: ADME
# T1 sequence (P20813 whole entry): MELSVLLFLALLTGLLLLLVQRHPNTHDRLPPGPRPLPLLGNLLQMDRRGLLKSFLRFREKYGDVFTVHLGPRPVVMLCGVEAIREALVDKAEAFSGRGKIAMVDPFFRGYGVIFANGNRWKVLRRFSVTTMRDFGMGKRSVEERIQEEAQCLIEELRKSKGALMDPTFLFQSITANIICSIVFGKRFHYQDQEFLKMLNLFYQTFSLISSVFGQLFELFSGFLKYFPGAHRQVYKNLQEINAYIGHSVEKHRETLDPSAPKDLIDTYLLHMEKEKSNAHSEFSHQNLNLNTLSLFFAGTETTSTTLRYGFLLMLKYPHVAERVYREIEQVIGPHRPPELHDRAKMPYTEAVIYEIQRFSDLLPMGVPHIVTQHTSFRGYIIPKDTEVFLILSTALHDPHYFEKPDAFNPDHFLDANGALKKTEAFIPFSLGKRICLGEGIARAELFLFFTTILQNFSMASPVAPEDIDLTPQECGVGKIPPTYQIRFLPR
# [2] = Apparent permeability in human Caco-2 cells at 1 uM by HPLC-UV analysis; assay type: ADME, cell-based
# [3] = Ratio of drug level in brain to plasma in Wistar rat at 1 mg/kg, iv by HPLC-MS/MS analysis; assay type: ADME, organism-based; conditions: brain and plasma, read-out: BPR
# [4] = Free plasma concentration in subchronic PCP-induced cognitive impairment associated schizophrenia Wistar rat model at 10 mg/kg, po measured at 1.5 hr post dose by HPLC-MS/MS analysis; assay type: ADME, organism-based; conditions: in vivo
# [5] = Metabolic stability in dog hepatocyte assessed as intrinsic clearance measured per 10^6 cells; assay type: ADME, cell-based, Canis lupus familiaris; conditions: hepatocytes, read-out: CLH
# [6] = biological target: T2, GABA-A receptor; alpha-5/beta-3/gamma-2 (Homo sapiens, UniProt P18507+P28472+P31644); assay: Displacement of [3H]Ro151788 from human recombinant alpha5beta3gamma2 GABAA receptor stably expressed in HEK293 cell membrane assessed as inhibition constant by radioligand binding assay; assay type: cell membranes
# T2 sequence (P18507 whole entry): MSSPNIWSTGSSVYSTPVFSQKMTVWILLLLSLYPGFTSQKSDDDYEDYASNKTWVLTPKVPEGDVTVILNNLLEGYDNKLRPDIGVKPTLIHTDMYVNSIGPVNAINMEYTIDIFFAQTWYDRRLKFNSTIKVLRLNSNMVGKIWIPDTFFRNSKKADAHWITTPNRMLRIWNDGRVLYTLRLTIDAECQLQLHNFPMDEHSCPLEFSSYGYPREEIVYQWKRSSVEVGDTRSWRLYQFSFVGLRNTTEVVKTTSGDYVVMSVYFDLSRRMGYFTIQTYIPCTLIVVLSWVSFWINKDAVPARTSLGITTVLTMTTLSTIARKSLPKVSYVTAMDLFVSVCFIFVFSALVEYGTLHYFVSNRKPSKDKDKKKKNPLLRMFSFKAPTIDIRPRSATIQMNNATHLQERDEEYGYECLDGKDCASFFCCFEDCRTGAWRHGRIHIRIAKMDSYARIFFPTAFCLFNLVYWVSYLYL
# T2 sequence (P28472 whole entry): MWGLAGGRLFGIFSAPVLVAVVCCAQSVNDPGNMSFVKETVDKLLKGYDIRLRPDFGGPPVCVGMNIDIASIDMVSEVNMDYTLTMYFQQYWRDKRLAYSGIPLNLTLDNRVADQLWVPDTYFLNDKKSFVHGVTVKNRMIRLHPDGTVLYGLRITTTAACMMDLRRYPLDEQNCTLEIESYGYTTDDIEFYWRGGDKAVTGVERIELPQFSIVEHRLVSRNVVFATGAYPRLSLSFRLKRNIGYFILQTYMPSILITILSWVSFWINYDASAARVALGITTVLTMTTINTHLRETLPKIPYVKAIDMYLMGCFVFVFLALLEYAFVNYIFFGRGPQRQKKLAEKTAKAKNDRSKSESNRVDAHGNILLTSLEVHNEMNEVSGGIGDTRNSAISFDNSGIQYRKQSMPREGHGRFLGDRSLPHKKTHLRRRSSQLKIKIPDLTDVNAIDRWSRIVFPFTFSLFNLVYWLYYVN
# T2 sequence (P31644 whole entry): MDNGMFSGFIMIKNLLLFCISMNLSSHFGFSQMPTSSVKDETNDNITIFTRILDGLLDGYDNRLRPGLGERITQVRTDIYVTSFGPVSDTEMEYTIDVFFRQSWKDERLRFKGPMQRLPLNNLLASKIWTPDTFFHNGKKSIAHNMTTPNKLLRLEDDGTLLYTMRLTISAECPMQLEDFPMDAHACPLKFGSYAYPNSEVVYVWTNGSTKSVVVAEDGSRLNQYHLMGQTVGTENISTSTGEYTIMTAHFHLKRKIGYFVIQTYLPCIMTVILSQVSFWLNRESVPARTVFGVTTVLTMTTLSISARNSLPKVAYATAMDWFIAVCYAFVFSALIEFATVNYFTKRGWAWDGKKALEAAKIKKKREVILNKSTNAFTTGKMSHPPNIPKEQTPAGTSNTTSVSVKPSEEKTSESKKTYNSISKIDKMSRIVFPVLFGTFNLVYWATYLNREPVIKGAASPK
# Homo sapiens = organism: Homo sapiens; assay: Selectivity ratio of Ki for human alpha1GABAA receptor to Ki for alpha2 GABAA receptor
# [7] = Thermodynamic solubility of the compound at pH 5; assay type: physicochemical; conditions: buffer, read-out: Therm_solubility
# [8] = Plasma protein binding in human; assay type: ADME, cell-free; conditions: read-out: PPB (converted)
# [9] = Thermodynamic solubility of the compound at pH 6.5; assay type: physicochemical; conditions: buffer, read-out: Therm_solubility
# [10] = […] in po dosed Wister rat assessed as motor impairment by assessing NOAEL by spontaneous motor activity test; assay type: organism-based; conditions: Wistar, in vivo
# Cytochrome P450 2C8 = biological target: T3, Cytochrome P450 2C8 (Homo sapiens, UniProt P10632); assay: Inhibition of CYP2C8 (unknown origin); assay type: ADME
# T3 sequence (P10632 whole entry): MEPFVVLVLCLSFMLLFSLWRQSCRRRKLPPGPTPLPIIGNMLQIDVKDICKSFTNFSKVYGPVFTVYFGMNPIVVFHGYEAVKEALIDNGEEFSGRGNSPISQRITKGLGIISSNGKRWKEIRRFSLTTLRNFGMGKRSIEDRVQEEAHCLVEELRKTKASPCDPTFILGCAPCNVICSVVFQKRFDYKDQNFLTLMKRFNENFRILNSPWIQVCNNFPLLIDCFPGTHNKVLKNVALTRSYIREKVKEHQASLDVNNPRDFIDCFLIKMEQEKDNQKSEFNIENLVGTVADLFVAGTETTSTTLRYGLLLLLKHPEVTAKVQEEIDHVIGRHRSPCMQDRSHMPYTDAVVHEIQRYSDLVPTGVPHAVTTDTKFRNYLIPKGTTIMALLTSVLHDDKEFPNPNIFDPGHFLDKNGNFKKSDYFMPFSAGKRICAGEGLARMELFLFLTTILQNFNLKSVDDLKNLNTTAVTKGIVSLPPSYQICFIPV
# [11] = Metabolic stability in human hepatocyte assessed as intrinsic clearance measured per 10^6 cells; assay type: ADME, cell-based; conditions: hepatocytes, read-out: CLH
compound,measurement,setting,value
Cc1onc(-c2ccc(F)cc2)c1COc1ccc2c(n1)CCN(C(=O)CS(C)(=O)=O)C2,NOAEL,[1],≥ 1000 mg/kg
same,IC50,Cytochrome P450 2B6,20.8 µM
same,Papp at 1 µM,[2],43 ×10⁻⁶ cm/s
same,Kp,[3],0.54
same,Cp(f),[4],6.9 nM
same,hepatocyte CLint,[5],2 µL/min/1e6 cells
same,Ki,[6],4.1 nM
same,Selectivity ratio,Homo sapiens,> 40
same,solubility thermodynamic,[7],142 µM
same,fraction unbound,[8],0.014
same,solubility thermodynamic,[9],9.8 µM
same,NOAEL,[10],≥ 100 mg/kg
same,IC50,Cytochrome P450 2C8,> 50 µM
same,hepatocyte CLint,[11],3 µL/min/1e6 cells
